From patent US10633429B2, “Human antibody κ type light chain complex-containing composition and method for producing same” (JAPAN SCIENCE AND TECHNOLOGY AGENCY, priority 2013, dated 2020)

Assays:
Type in all cases: cell-based
[1] = test system: A549 cell line (human alveolar epithelial cancer cell line); assay: Cytotoxicity assay (WST assay), A549 cell line; settings: Example 5; C51 incubated with metal ions 4 μM or cisplatin 4 μM; 24 hours; PBS set to 100%
Method: (§1) The cytotoxicity of each complex-containing composition to cancer cells was tested using cancer cell lines. As the cancer cell lines, A549 cell line (human alveolar epithelial cancer cell line), ES-2 cell line (human ovarian cancer cell line), MOLT-4 cell line (human acute lymphoblastic leukemia T cell line), BxPC-3 cell line (human pancreatic adenocarcinoma cell line), SNU-1 cell line (human metastatic gastric cancer cell line), and PANC-1 cell line (human pancreatic cancer cell line) were used.
(§2) All of these cell lines were purchased from ATCC (American Type Culture Collection). […]
First, after being recovered by thawing the frozen cancer cell lines, the recovered cancer cell lines were seeded in a 96-well plate by 100 μL to be 5×10^3 cells/well (the number of seeds was appropriately adjusted by cell species). […] After culturing was carried out for 24 hours or 48 hours from the addition of the complex-containing composition (after cells are planted and cultivated for 48 hours or 72 hours), a WST-1 reagent (manufactured by Roche Inc.) was added to each well by 10 μL and incubated for 1, 1.5, and 2 hours to form a formazan dye, and then the absorbance (Abs at 450 nm) of the formazan dye was measured (WST assay). […]

[2] = test system: SNU-1 cell line (human metastatic gastric cancer cell line); assay: Cytotoxicity assay (WST assay), SNU-1 cell line
Method: as §1
(§3) All of these cell lines were purchased from ATCC (American Type Culture Collection). Here, the A549 cell line was cultured using a 10% FCS (fetal calf serum)-containing F-12K culture medium by a general method, the ES-2 cell line was cultured using a 10% FCS-containing McCoy's 5A culture medium by a general method, each of the MOLT-4 cell line, SNU-1 cell line, and BxPC-3 cell line was cultured using a 10% FCS-containing RPMI-1640 culture medium by a general method, the PANC-1 cell line was cultured using a 10% FCS-containing DMEM culture medium by a general method, and the WI-38 cell line was cultured using a 10% FCS-containing EMEM culture medium by a general method.
(§4) First, after being recovered by thawing the frozen cancer cell lines, the recovered cancer cell lines were seeded in a 96-well plate by 100 μL to be 5×10^3 cells/well (the number of seeds was appropriately adjusted by cell species). After culturing was carried out at 37° C. for 24 hours, a culture medium to be added to the 96-well plate was removed by decantation, and then each complex-containing composition prepared at a concentration of about 1 mg/mL was added to each well by 100 μL. After culturing was carried out for 24 hours or 48 hours from the addition of the complex-containing composition (after cells are planted and cultivated for 48 hours or 72 hours), a WST-1 reagent (manufactured by Roche Inc.) was added to each well by 10 μL and incubated for 1, 1.5, and 2 hours to form a formazan dye, and then the absorbance (Abs at 450 nm) of the formazan dye was measured (WST assay). As a control, a human antibody κ type light chain not bound to metal ions or PBS was added instead of the complex-containing composition and cultured for 24 hours or 48 hours, and then WST assay was carried out. Based on the results of the obtained absorbance, the cell survival rate of the well added with the human antibody κ type light chain not bound to metal ions or the well added with the PBS was set to 100%, and the cell survival rate of each well was determined, so as to evaluate the cytotoxicity of the added complex-containing composition.

[3] = test system: PANC-1 cell line (human pancreatic cancer cell line); assay: Cytotoxicity assay (WST assay), PANC-1 cell line; settings: Example 2, Fr. 3B set to 100%
Method: as §1, §3
as §4, with “After culturing was carried out at 37° C. for 24 hours, a culture medium to be added to the 96-well plate was removed by decantation, and then each complex-containing composition prepared at a concentration of about 1 mg/mL was added to each well by 100 μL.” left out

[4] = test system: WI-38 cell line (human fetal lung fibroblast cell line); assay: Cytotoxicity assay (WST assay), WI-38 control cell line; settings: Example 5; cisplatin 4.2 μM; 24 hours; PBS set to 100%
Method: In addition, as a control, WI-38 cell line (human fetal lung fibroblast cell line) was also used.
as §2
as §4, with “After culturing was carried out at 37° C. for 24 hours, a culture medium to be added to the 96-well plate was removed by decantation, and then each complex-containing composition prepared at a concentration of about 1 mg/mL was added to each well by 100 μL.” left out, “As a control, a human antibody κ type light chain not bound to metal ions or PBS was added instead of the complex-containing composition and cultured for 24 hours or 48 hours, and then WST assay was carried out.” left out

[5] = Example 2, #7_wt fractions 4 μM (100 μg/mL) or cisplatin 4 μM, Fr. 3B set to 100%
[6] = Example 2, cisplatin 33 μM, Fr. 3B set to 100%
[7] = #7_wt fractions 4 μM (100 μg/mL) or cisplatin 4 μM

N.N.[Cl][Pt][Cl] [Cisplatin, cisplatin]
Relative cell survival rate [1]: about 60% | Relative cell survival rate, SNU-1 cell line, 24 h [2, 5]: 85.0% | Relative cell survival rate, SNU-1 cell line, 48 h [2, 5]: 32.5% | Relative cell survival rate, SNU-1 cell line, 24 h [2, 6]: 32.0% | Relative cell survival rate, SNU-1 cell line, 48 h [2, 6]: 5.8% | Relative cell survival rate, SNU-1 cell line, 24 h ([2]; Example 3, cisplatin 4 μM, Fr. 3B (#7_C219A) set to 100%): 89.5% | Relative cell survival rate, PANC-1 cell line, 24 h [3, 7]: 109.3% | Relative cell survival rate, PANC-1 cell line, 48 h [3, 7]: 82.1% | Relative cell survival rate, PANC-1 cell line, 24 h ([3]; cisplatin 33 μM): 60.3% | Relative cell survival rate, PANC-1 cell line, 48 h ([3]; cisplatin 33 μM): 9.6% | Relative cell survival rate [4]: 40%
